“Also recorded” adds a separate entry of the source.
How the values were obtained:
LDLR mRNA [1] = test: Northern blot analysis of LDLR mRNA expression in HepG2 cells; type: cell-based, human; conditions: each alkaloid 20 μg/ml, 8 h
Description: . The membrane was stripped and hybridized to a human GAPDH probe. The figure shown is representative of 3 separate studies.
FIG. 2 illustrates the comparison of dose-dependent effects of CND and BBR on LDLR mRNA expression. HepG2 cells were treated with CND or BBR for 8 h at the indicated concentrations and total RNA was isolated for analysis of LDLR mRNA and GAPDH mRNA expression by northern blot (FIG. 2, Panel A) and real-time PCR assays (FIG. 2, Panel B).
(§1) Quantitation of LDLR mRNA expression by northern blot analysis and real-time PCR. Isolation of total RNA and analysis of LDLR and GAPDH mRNA by northern blot were performed as previously described (Liu, J et al. J. Lipid Res. 1997, 38: 2035-2048). Differences in hybridization signals of northern blots were quantitated by a PhosphoImager. For quantitative real-time PCR assays, the reverse transcription was conducted with random primers using M-MLV (Promega) at 37° C. for 1 h in a volume of 25 u.1 containing 1 μg of total RNA. Real-time PCR was performed on the cDNA using ABI Prism 7900-HT Sequence Detection System and Universal MasterMix. The human and hamster LDLR and GAPDH Pre-Developed TaqMan Assay Reagents (Applied Biosystems) were used to assess the mRNA expressions in HepG2 and in hamster livers. The MDR1 mRNA expression in HepG2 cells was assayed similarly using the Pre-Developed probes from Applied Biosystems.
. HPLC/UV-DAD spectroscopic comparisons with standard solutions were used to confirm the presence of BBR, CND, HDT, and HDTN, as well as the absence of PMT. Concentrations of CND and HDT in sample extracts were determined using a single-point calibration and concentrations of BBR in sample extracts were calculated using a standard curve. The identities of BBR, CND, and HDT in extracts were verified further by LC-MS analysis. […]. […]. The results of northern blots were independently confirmed by real-time quantitative RT-PCR (FIG. 1C). […]. […].

LDLR mRNA [2] = test: Real-time quantitative RT-PCR of LDLR mRNA expression in HepG2 cells; type: cell-based, human; conditions: HepG2, 8 h
LDLR mRNA [3] = test: LDLR mRNA stability under actinomycin D in HepG2 cells (real-time RT-PCR); type: cell-based, human; conditions: HepG2, actinomycin D 5 μg/ml 30 min before, BBR or CND 15 μg/ml, 4 h
LDLR mRNA [4] = test: Hepatic LDLR mRNA expression in HFHC-fed hamsters (quantitative real-time RT-PCR); type: in vivo, Golden Syrian hamsters; conditions: BBR 1.8 mg/d, end of 24-day treatment, n=6, p<0.0001
ERK [5] = test: Western blot of phosphorylated ERK in hamster liver; type: in vivo, Golden Syrian hamsters; conditions: pooled liver samples per treatment group (n=9), HFHC hamsters
ERK [6] = test: Western blot of phosphorylated ERK in HepG2 cells; type: cell-based, human; conditions: HepG2, BBR, HDT or CND 20 μg/ml, 2 h
[7] = Body weight, food intake and adverse effects in HFHC-fed hamsters; type: in vivo, Golden Syrian hamsters; conditions: 24 day treatment, control animals increased by 10%
Description: . The body weight of hamsters under a HFHC diet in untreated and drug-treated animals at indicated doses were monitored on alternate days (FIG. 11, Panel A). The food intake within 24 h period were measured 2-3 times a week throughout the entire experiment (FIG. 11, Panel B). The data are means±S.D. of 3 cages per group.
Goldenseal in vivo studies. 42 male Golden Syrian hamsters at 6-8 weeks of age were purchased from the Charles River Laboratories and were housed in cages (3 animals/cage) in an air-conditioned room with a 12 h light cycle. Animals had free access to autoclaved water and food. After one week on a regular rodent chow diet, 36 hamsters were switched to a rodent HFHC diet containing 1.25% cholesterol and 2.2% fat (Product # D12108, Research Diet, Inc., New Brunswick, N.J.) and 6 hamsters were fed a control normal diet containing 0.37% fat and no cholesterol (Product # D12102, Research Diet, Inc.). […]. Berberine Chloride was dissolved in the same vehicle solution. Four hours after the last drug treatment, all animals were sacrificed. Blood samples were collected through cardiac puncture and were analyzed for liver function, kidney function, and blood chemistry at DEXX Laboratories (Palo Alto, Calif.). […] After staining, tissue sections were evaluated by a veterinary pathologist and an experienced scientist independently. […]

[8] = target: MDR1 transporter (pgp-170) (Homo sapiens, UniProt P08183)
MDR1 transporter (pgp-170), sequence (P08183 whole entry): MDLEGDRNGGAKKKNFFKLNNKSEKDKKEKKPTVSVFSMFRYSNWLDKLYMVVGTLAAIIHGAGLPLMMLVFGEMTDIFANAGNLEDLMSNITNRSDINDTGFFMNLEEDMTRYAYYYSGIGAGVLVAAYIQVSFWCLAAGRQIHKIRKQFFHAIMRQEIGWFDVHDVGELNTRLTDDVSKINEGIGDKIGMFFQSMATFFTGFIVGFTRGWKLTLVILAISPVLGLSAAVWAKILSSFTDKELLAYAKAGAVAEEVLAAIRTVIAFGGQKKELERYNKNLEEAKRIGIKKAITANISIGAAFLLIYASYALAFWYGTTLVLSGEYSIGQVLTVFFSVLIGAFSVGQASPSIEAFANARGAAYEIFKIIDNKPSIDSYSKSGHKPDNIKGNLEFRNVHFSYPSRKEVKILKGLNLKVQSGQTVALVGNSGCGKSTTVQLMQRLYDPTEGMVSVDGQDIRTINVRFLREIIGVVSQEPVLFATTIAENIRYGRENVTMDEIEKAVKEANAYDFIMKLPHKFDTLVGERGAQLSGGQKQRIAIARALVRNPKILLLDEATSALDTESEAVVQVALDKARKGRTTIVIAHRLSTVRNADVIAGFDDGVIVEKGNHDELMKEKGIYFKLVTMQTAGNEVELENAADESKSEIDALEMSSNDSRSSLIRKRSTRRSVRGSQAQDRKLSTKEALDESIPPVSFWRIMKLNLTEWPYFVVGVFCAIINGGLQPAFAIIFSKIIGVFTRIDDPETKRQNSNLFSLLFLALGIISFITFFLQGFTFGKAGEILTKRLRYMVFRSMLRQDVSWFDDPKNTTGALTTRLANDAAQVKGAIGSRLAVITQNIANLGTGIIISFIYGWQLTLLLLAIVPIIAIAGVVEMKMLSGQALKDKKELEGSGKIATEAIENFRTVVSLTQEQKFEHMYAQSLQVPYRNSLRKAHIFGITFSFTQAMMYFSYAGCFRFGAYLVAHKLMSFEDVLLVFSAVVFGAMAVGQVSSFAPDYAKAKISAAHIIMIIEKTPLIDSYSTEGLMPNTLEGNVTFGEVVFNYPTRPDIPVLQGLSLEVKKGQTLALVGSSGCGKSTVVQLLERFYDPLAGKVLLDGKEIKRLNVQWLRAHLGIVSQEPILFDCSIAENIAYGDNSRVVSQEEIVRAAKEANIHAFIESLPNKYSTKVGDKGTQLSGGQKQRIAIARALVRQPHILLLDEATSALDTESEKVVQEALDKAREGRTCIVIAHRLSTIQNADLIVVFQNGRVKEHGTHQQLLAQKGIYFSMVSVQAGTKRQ

[9] = 32 hypercholesterolemic patients, oral, 1 g daily, 3 months; cited from earlier work
DNA = conditions: cited from earlier work
[10] = Measurement of hepatic cholesterol and TG in HFHC-fed hamsters; conditions: BBR 1.8 mg/animal/d
HepG2 cells = test: BBR uptake assay, intracellular fluorescence by FACS in HepG2 cells; conditions: HepG2, 5 min incubation, BBR 15 μg/ml
LDLR promoter = LDLR promoter dual luciferase reporter assay (pLDLR234Luc) in HepG2 cells; type: cell-based, human; conditions: 8 h
Description: FIG. 1E: Analysis of LDLR promoter activity: HepG2 cells were cotransfected with pLDLR234Luc and a normalizing vector pRL-SV40. […] Firefly luciferase and renilla luciferase activities were measured. The data represent normalized LDLR promoter activity.
Transient transfection and dual luciferase reporter assays. HepG2 cells were transfected with plasmid DNA (100 ng/well) by using FuGENE 6 transfection reagent. The DNA ratio of pLDLR234Luc (Li, C et al. J. Biol. Chem. 1999, 274: 6747-6753) to renilla luciferase reporter pRL-SV40 was 90:10. Twenty h after transfection, medium was changed to 0.5% FBS and drugs were added for 8 h prior to cell lysis. The luciferase activity in cell lysate was measured using Dual Luciferase Assay System obtained from Promega. Triplicate wells were assayed for each transfection condition.

LDLR mRNA [11] = test: LDLR mRNA expression with MDR1 blocked by verapamil or MDR1 siRNA in HepG2 cells (real-time PCR); type: cell-based, human
Description: as §1, with “Isolation of total RNA and analysis of LDLR and GAPDH mRNA by northern blot were performed as previously described (Liu, J et al. J. Lipid Res. 1997, 38: 2035-2048).” left out
Small interference RNA (siRNA) transfection.

MDR1 = MDR1 (Homo sapiens, UniProt P08183); test: MDR direct dye efflux assay with DiOC2(3) in HepG2 cells; conditions: HepG2, co-incubation 2 h, CND 15 μg/ml
MDR1, sequence (P08183 whole entry): as above
Description: MDR direct dye efflux assay. The MDR Direct Dye Efflux Assay kit (Cat. No. ECM910, Chemicon International Inc., Temecula, Calif.) was used to measure MDR1 activity. HepG2 cells seeded in 6-well culture plates were incubated in efflux buffer (RPMI+2% BSA) and 1 μg/ml of DiOC2(3) in the absence of presence of tested compounds at 37° C. for 2 h.

liver cells = test: Cell survival by MTT (Cell Proliferation Kit I); type: cell-based; conditions: different concentrations, 18 h
Description: The toxicity of CND and BBR were compared using a cell-based assay. Cell survival rate under drug treatments were determined by Cell Proliferation Kit I (MTT) obtained from Roche Applied Sciences (Indianapolis, Ind.). Cells were seeded in 96-well plates at a density of 5×10^3 cells/well/ in 100 μl medium supplemented with 10% FBS at 37° C. and 5% CO2. After 24 h, cells were incubated with fresh medium containing different concentrations of BBR or CND for 18 h. At the end of drug treatment, 10 μl of MTT labeling reagent per well was added to cells to reach a concentration of 0.5 mg/ml. After a 4 h-reaction, 100 μl of solubilization solution was added to each well and the plate was incubated at 37° C. overnight. The sample spectraphotometrical absorbance was measured by a microplate reader at the wavelength of 550 nm. The reading of sample without drug treatment was defined as 100% survival and readings from drug-treated samples were plotted relative to that value. Quadruple wells were used in each culture condition.

COc1ccc2cc3[n+](cc2c1OC)CCc1cc2c(cc1-3)OCO2 [BBR, berberine]
LDLR mRNA expression (northern blot) (LDLR mRNA [1]): strong inducers
increase in LDLR mRNA expression (LDLR mRNA [2]; BBR 20 μg/ml): 3 fold
LDLR mRNA increase compared to control under transcriptional suppression (LDLR mRNA [3]): ~2.5 fold
increase in hepatic LDLR mRNA expression (LDLR mRNA [4]): 3.7 fold
levels of phosphorylated ERK in liver (ERK [5]): greatly elevated
ERK phosphorylation (ERK [6]): attributable to CND and BBR
body weights [7]: unchanged
increase in BBR uptake in MDR1 siRNA transfected cells compared to mock transfected cells ([8]; human, 2 h, 15 μg/ml): 49%
increase in fluorescent intensity on blocking MDR1 activity with VRMP ([8]; human, 2 h, 15 μg/ml): 49%
reduction of LDL-c [9]: 25%
reduction of plasma total cholesterol (TC) [9]: 29%
reduction of triglyceride (TG) [9]: 35%
side effects [9]: without side effects
DNA binding (DNA): strong DNA binding affinities
hepatic TC, % of control [10]: 68.7 % of control
hepatic TG, % of control [10]: 78.3 % of control
increase of intracellular fluorescent intensity (HepG2 cells): ~2 fold

COc1ccc2c(c1OC)CN1CCc3cc4c(cc3[C@H]1C2)OCO4 [CND, canadine]
LDLR mRNA expression (northern blot) (LDLR mRNA [1]): strong inducers
dose-dependent effect on LDLR mRNA expression, CND compared with BBR (LDLR mRNA [2]; similar concentration ranges, northern blot and real-time RT-PCR): greater activity than BBR; also recorded: more potent inducer of LDLR expression
LDLR promoter activity (LDLR promoter; HepG2, BBR or CND 15 μg/ml): not affected at all
LDLR mRNA increase compared to control under transcriptional suppression (LDLR mRNA [3]): ~2.5 fold
fold increase in activity on LDLR mRNA in the presence of VRMP vs absence (LDLR mRNA [11]; HepG2, 0.6 μM VRMP, 8 h, 3 separate experiments, mean±S.D.): 0.82±0.34 fold
effect of MDR1 siRNA transfection on activity in elevation of LDLR mRNA level (LDLR mRNA [11]; HepG2, siRNA 3 days, drug 6 h): not affected
efflux of DiOC2(3) (MDR1): no inhibitory effect
ERK phosphorylation (ERK [6]): attributable to CND and BBR
toxicity to liver cells (cell survival, MTT), CND compared with BBR (liver cells): less toxic to liver cells than berberine (BBR)
MDR1 substrate status ([8]; inferred from lack of VRMP effect on activity in HepG2): not a substrate of MDR1
DNA binding (DNA): does not bind to DNA

COc1ccc2c(c1OC)C(=O)O[C@@H]2[C@H]1c2cc3c(cc2CCN1C)OCO3 [HDT, β-hydrastine]
LDLR mRNA expression (northern blot) (LDLR mRNA [1]): no effects

CN1CCc2cc3c(cc2C1O)OCO3 (stereo not shown) [HDTN, hydrastinine]
LDLR mRNA expression (northern blot) (LDLR mRNA [1]): no effects

COc1cc2c(cc1OC)-c1cc3ccc(OC)c(OC)c3c[n+]1CC2 [PMT, palmatine]
LDLR mRNA expression (northern blot) (LDLR mRNA [1]): no regulatory activity on LDLR expression; also recorded: no effects
DNA binding (DNA): strong DNA binding affinities

COc1ccc(CCN(C)CCCC(C#N)(c2ccc(OC)c(OC)c2)C(C)C)cc1OC (stereo not shown) [VRMP, verapamil]
effect of VRMP itself on the LDLR mRNA level (LDLR mRNA [11]): little effect

B1: OM: cytokine oncostatin M, known activator of the LDLR promoter (protein, UniProt P13725 26-221, looked up)
Oncostatin-M: AAIGSCSKEYRVLLGQLQKQTDLMQDTSRLLDPYIRIQGLDVPKLREHCRERPGAFPSEETLRGLGRRGFLQTLNATLGCVLHRLADLEQRLPKAQDLERSGLNIEDLEKLQMARPNILGLRNNIYCMAQLLDNSDTAEPTKAGRGASQPPTPTPASDAFQRKLEGCRFLHGYHRFMHSVGRVFSKWGESPNRSRR
LDLR promoter activity (LDLR promoter; HepG2, OM 50 ng/ml): strongly elevated

Reference: US20080124404A1 (priority 2006, published 2008)
